Test results as given in PubChem BioAssay (NCI).
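Exposure lasted 48 hours, with cells grown in 96-well plates and compounds tested at five concentrations. GI50 = concentration required for 50% inhibition of growth. TGI is the concentration that stops growth completely.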

Columns and labels:
Assay in all cases: NCI-60 cell line screen, 48 h
[1] = tested on: HL-60(TB) leukemia
[2] = tested on: RPMI-8226 leukemia
[3] = tested on: SF-268 CNS
[4] = tested on: A498 renal
[5] = tested on: SK-OV-3 ovarian
[6] = tested on: 786-0 renal
[7] = tested on: MDA-MB-435
[8] = tested on: UO-31 renal
[9] = tested on: M14 melanoma
[10] = tested on: HOP-62 NSCLC
[11] = tested on: LOX IMVI melanoma
[12] = tested on: U251 CNS
[13] = tested on: CAKI-1 renal
[14] = tested on: KM12 colon
[15] = tested on: PC-3 prostate
[16] = tested on: UACC-62 melanoma
[17] = tested on: NCI-H23 lung
[18] = tested on: HCC-2998 colon
[19] = tested on: TK-10 renal
[20] = tested on: HCT-116 colon
[21] = tested on: SNB-19 CNS
[22] = tested on: MCF7 breast
[23] = tested on: SNB-75 CNS
[24] = tested on: SK-MEL-5 melanoma
[25] = tested on: SF-295 CNS
[26] = tested on: MOLT-4 leukemia
[27] = tested on: HCT-15 colon
[28] = tested on: K-562 leukemia
[29] = tested on: SK-MEL-2 melanoma
[30] = tested on: EKVX NSCLC
[31] = tested on: OVCAR-5 ovarian
[32] = tested on: OVCAR-8 ovarian
[33] = tested on: DU-145 prostate
[34] = tested on: MDA-MB-231 breast
[35] = tested on: COLO 205 colon
[36] = tested on: CCRF-CEM leukemia
[37] = tested on: SW-620 colon
[38] = tested on: NCI-H522 lung
[39] = tested on: NCI-H460 lung
[40] = tested on: OVCAR-4 ovarian
[41] = tested on: IGROV1 ovarian
[42] = tested on: HT29 colon
[43] = tested on: UACC-257 melanoma
[44] = tested on: A549 NSCLC
[45] = tested on: HS 578T breast
[46] = tested on: BT-549 breast
[47] = tested on: SF-539 CNS
[48] = tested on: OVCAR-3 ovarian
[49] = tested on: SR leukemia
[50] = tested on: NCI-H226 lung
[51] = tested on: SK-MEL-28 melanoma
[52] = tested on: SN12C renal
[53] = tested on: HOP-92 NSCLC
[54] = tested on: ACHN renal
[55] = tested on: NCI/ADR-RES ovarian
[56] = tested on: RXF 393 renal
[57] = tested on: MALME-3M melanoma

Cn1cc(-c2ccc(-c3cn(C)c4ncccc34)[nH]2)c2cccnc21
GI50 [1]: 1.87 µM
TGI [1]: 7.48 µM
GI50 [2]: 1.94 µM
TGI [2]: 6.88 µM
GI50 [3]: 2.23 µM
TGI [3]: 5.45 µM
GI50 [4]: > 26.3 µM
TGI [4]: > 100 µM
GI50 [5]: 25.1 µM
TGI [5]: > 100 µM
GI50 [6]: 4.64 µM
TGI [6]: 38.6 µM
GI50 [7]: 24 µM
TGI [7]: > 100 µM
GI50 [8]: 1.57 µM
TGI [8]: 3.01 µM
GI50 [9]: 1.94 µM
TGI [9]: 3.97 µM
GI50 [10]: 3.02 µM
TGI [10]: 24.8 µM
GI50 [11]: 2 µM
TGI [11]: 3.93 µM
GI50 [12]: 1.66 µM
TGI [12]: 3.17 µM
GI50 [13]: 1.44 µM
TGI [13]: 4.03 µM
GI50 [14]: 2.02 µM
TGI [14]: 4.23 µM
GI50 [15]: 1.43 µM
TGI [15]: 3.38 µM
GI50 [16]: 1.63 µM
TGI [16]: 3.76 µM
GI50 [17]: 3.18 µM
TGI [17]: 12.7 µM
GI50 [18]: 2.51 µM
TGI [18]: 5.89 µM
GI50 [19]: 1.48 µM
TGI [19]: 2.88 µM
GI50 [20]: 2.81 µM
TGI [20]: 12.4 µM
GI50 [21]: 2.65 µM
TGI [21]: 8.03 µM
GI50 [22]: 5.54 µM
TGI [22]: > 100 µM
GI50 [23]: 1.82 µM
TGI [23]: 4.34 µM
GI50 [24]: 1.6 µM
TGI [24]: 3.47 µM
GI50 [25]: 4.28 µM
TGI [25]: 12.1 µM
GI50 [26]: 10.2 µM
TGI [26]: > 100 µM
GI50 [27]: 1.69 µM
TGI [27]: 4.63 µM
GI50 [28]: 1.76 µM
TGI [28]: 8.11 µM
GI50 [29]: 1.91 µM
TGI [29]: 4.04 µM
GI50 [30]: 1.62 µM
TGI [30]: 3.34 µM
GI50 [31]: 1.65 µM
TGI [31]: 3.59 µM
GI50 [32]: 2.44 µM
TGI [32]: 6.45 µM
GI50 [33]: > 100 µM
TGI [33]: > 100 µM
GI50 [34]: 1.79 µM
TGI [34]: 4.08 µM
GI50 [35]: 1.82 µM
TGI [35]: 3.84 µM
GI50 [36]: 2.27 µM
TGI [36]: 7.56 µM
GI50 [37]: 2.32 µM
TGI [37]: 5.34 µM
GI50 [38]: 0.19 µM
TGI [38]: 0.451 µM
GI50 [39]: 10 µM
TGI [39]: > 100 µM
GI50 [40]: 0.638 µM
TGI [40]: 1.61 µM
GI50 [41]: 4.5 µM
TGI [41]: 53.4 µM
GI50 [42]: 10 µM
TGI [42]: > 100 µM
GI50 [43]: 2.93 µM
TGI [43]: 19.6 µM
GI50 [44]: 7.84 µM
TGI [44]: > 100 µM
GI50 [45]: 1.95 µM
TGI [45]: 6.42 µM
GI50 [46]: 1.07 µM
TGI [46]: 2.79 µM
GI50 [47]: 1.59 µM
TGI [47]: 3.32 µM
GI50 [48]: 1.63 µM
TGI [48]: 3.3 µM
GI50 [49]: 1.62 µM
TGI [49]: > 22.1 µM
GI50 [50]: > 67.1 µM
TGI [50]: > 100 µM
GI50 [51]: 3.33 µM
TGI [51]: 10.9 µM
GI50 [52]: 7.26 µM
TGI [52]: > 100 µM
GI50 [53]: 0.448 µM
TGI [53]: 2.13 µM
GI50 [54]: 1.62 µM
TGI [54]: 3.08 µM
GI50 [55]: 2.93 µM
TGI [55]: 9.59 µM
GI50 [56]: 1.52 µM
TGI [56]: 3.65 µM
GI50 [57]: 2.7 µM
TGI [57]: 7.12 µM

COc1cccc(-c2cc(=O)c3cc(NC(C)=O)ccc3[nH]2)c1
TGI [2]: 96.2 µM
TGI [3]: > 100 µM
TGI [4]: 61 µM
TGI [5]: > 100 µM
TGI [6]: > 100 µM
TGI [7]: 17.1 µM
TGI [8]: > 100 µM
TGI [9]: > 100 µM
TGI [10]: > 100 µM
TGI [11]: > 100 µM
TGI [12]: > 100 µM
TGI [13]: > 100 µM
TGI [14]: > 100 µM
TGI [15]: > 100 µM
TGI [16]: > 100 µM
TGI [17]: > 100 µM
TGI [18]: > 100 µM
TGI [19]: > 100 µM
TGI [21]: > 100 µM
TGI [22]: > 100 µM
TGI [24]: 56 µM
TGI [26]: > 100 µM
TGI [27]: > 100 µM
TGI [30]: > 100 µM
TGI [31]: > 100 µM
TGI [32]: > 100 µM
TGI [34]: > 100 µM
TGI [35]: > 100 µM
TGI [36]: 9.27 µM
TGI [37]: > 100 µM
TGI [38]: > 100 µM
TGI [39]: > 100 µM
GI50 [40]: 19.6 µM
TGI [40]: > 100 µM
TGI [41]: > 100 µM
TGI [42]: > 100 µM
TGI [43]: > 100 µM
TGI [44]: > 100 µM
TGI [45]: 8.35 µM
TGI [46]: > 100 µM
TGI [47]: 44.7 µM
TGI [49]: 6 µM
TGI [51]: > 100 µM
TGI [52]: > 100 µM
TGI [53]: > 100 µM
TGI [54]: > 100 µM
TGI [55]: > 100 µM
TGI [57]: > 100 µM
